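96-well plates; 48 h exposure; 5 concentrations. Endpoints by linear interpolation between flanking doses. Not reached: highest tested concentration assigned. GI50 marks 50% less growth.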 The source made the active and inactive calls. Rule as the data show it: active = GI50 up to about 1.1 µM and inactive = higher.
What was measured:
Assay in all cases: DTP human tumour cell line panel, 48 h
[1] = tested on: A549
[2] = tested on: CCRF-CEM
[3] = tested on: HCT-116
[4] = tested on: HOP-62
[5] = tested on: IGROV-1
[6] = tested on: NCI-H226
[7] = tested on: NCI-H23
[8] = tested on: OVCAR-3
[9] = tested on: OVCAR-5
[10] = tested on: OVCAR-8
[11] = tested on: RPMI-8226
[12] = tested on: SF-539
[13] = tested on: SK-MEL-28
[14] = tested on: SN12C
[15] = tested on: SR
[16] = tested on: U-251
[17] = tested on: UACC-257
[18] = tested on: DU-145
[19] = tested on: MCF7

Measured: GI50

Cc1cccc(C)c1NC(=O)C1C(=O)N(c2c(C)cccc2C)C(=O)/C1=N\N (stereo unspecified)
inactive: [1] > 100 µM | [2] > 100 µM | [3] > 100 µM | [4] > 100 µM | [5] > 100 µM | [6] > 100 µM | [7] > 100 µM | [8] > 100 µM | [9] > 100 µM | [10] > 100 µM | [11] > 100 µM | [12] > 100 µM | [13] > 100 µM | [14] > 100 µM | [15] > 100 µM | [16] > 100 µM | [17] > 100 µM

COC(=O)C1(C(=O)OC)CC2=C(S(=O)(=O)c3ccccc3)C[C@H](C#N)[C@H]2C1
inactive: [1] > 100 µM | [2] > 100 µM | [18] > 100 µM | [3] > 100 µM | [4] > 100 µM | [5] 44.6 µM | [19] 24 µM | [6] > 100 µM | [7] > 100 µM | [9] > 100 µM | [10] > 100 µM | [12] > 100 µM | [13] > 100 µM | [14] > 100 µM | [16] > 100 µM | [17] > 100 µM

CCOC(=O)C(=[N+]=[N-])C(=O)C1(C(=O)OCC)CCN(C(=O)c2ccccc2)C1=O (stereo unspecified)
inactive: [1] > 100 µM | [2] > 100 µM | [18] > 100 µM | [3] > 100 µM | [4] > 100 µM | [5] > 100 µM | [19] > 100 µM | [6] > 100 µM | [7] > 100 µM | [9] > 100 µM | [10] > 100 µM | [12] > 100 µM | [14] > 100 µM | [17] > 100 µM

COc1cccc2nc3c(C(=O)NCCN(C)C)cccc3nc12
inactive: [1] 7.35 µM | [2] 5.35 µM | [3] 3.79 µM | [4] 11.4 µM | [5] 16.1 µM | [6] 5.27 µM | [7] 11.8 µM | [8] 18.1 µM | [9] 15.9 µM | [10] 9.12 µM | [11] 6.49 µM | [12] 4.27 µM | [13] 13.8 µM | [14] 9.2 µM | [15] 3.38 µM | [16] 12.6 µM | [17] 6.03 µM

COC(=O)[C@]12CCC(C)[C@H](C)[C@H]1C1=CCC3[C@@]4(C)CC[C@H](OC(C)=O)C(C)(C)C4CC[C@@]3(C)C1(C)C(O)C2 (stereo partly specified)
inactive: [1] > 100 µM | [2] 89.3 µM | [3] 54.2 µM | [4] > 100 µM | [5] > 100 µM | [6] 27.1 µM | [7] > 100 µM | [8] > 100 µM | [9] > 100 µM | [10] > 100 µM | [11] 53.7 µM | [12] > 100 µM | [13] > 100 µM | [14] > 100 µM | [15] > 100 µM | [16] > 100 µM | [17] > 100 µM
